How the values were obtained:
[1] = biological target: T1, Triticum aestivum (wheat) EPSP synthase DGT-7 variant DGT-7 v7 (G→A, P→S; GAPS) (Triticum aestivum, UniProt B5M6A1, G167A/P172S); assay: In vitro kinetic assay (inorganic phosphate production, malachite green); type: biochemical; conditions: IC50 (glyphosate)
T1 construct: GAPS double mutant

[2] = test system: Arabidopsis transformed with TraP12 v2::dgt-14 (pDAB105528); assay: Postemergence glyphosate tolerance, visual injury; type: in vivo, Arabidopsis thaliana; conditions: 2 weeks after application
[3] = test system: Non-transformed control Arabidopsis (cv. Columbia); assay: Postemergence glyphosate tolerance, visual injury; type: in vivo, Arabidopsis thaliana; conditions: 840 g ae/ha, 2 weeks after application
[4] = test system: untransformed B104 maize line; assay: Growth inhibition dosage response in maize callus culture; type: cell-based, Zea mays
[5] = test system: Arabidopsis transformed with TraP9 v2::dgt-14 (pDAB105527); assay: Postemergence glyphosate tolerance, visual injury; type: in vivo, Arabidopsis thaliana; conditions: 2 weeks after application

T1 sequence (B5M6A1 entry or part of it G167A/P172S): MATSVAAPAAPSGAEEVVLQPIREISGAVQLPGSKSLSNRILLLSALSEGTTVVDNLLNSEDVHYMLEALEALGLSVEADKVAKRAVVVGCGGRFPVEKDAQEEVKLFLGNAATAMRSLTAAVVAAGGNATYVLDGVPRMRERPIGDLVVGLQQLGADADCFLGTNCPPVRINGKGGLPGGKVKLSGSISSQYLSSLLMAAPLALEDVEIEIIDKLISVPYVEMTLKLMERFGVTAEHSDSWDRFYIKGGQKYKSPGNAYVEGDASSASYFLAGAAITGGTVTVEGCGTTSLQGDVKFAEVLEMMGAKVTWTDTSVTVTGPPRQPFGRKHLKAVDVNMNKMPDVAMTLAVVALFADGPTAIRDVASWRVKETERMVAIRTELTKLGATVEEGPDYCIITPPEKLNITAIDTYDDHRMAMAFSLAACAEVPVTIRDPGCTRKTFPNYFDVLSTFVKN

SMILES: O=C(O)CNCP(=O)(O)O [glyphosate, N-(phosphonomethyl)glycine]
- IC50 ([1]; at 60 μM PEP): 15.4 mM
- IC50 ([1]; at 1 mM PEP): 19.7 mM
- Visual % injury (Ave) ([2]; T2, 840 g ae/ha): 2.5%
- Visual % injury (Ave) ([2]; T3, 840 g ae/ha): 0.0%
- Visual % injury (Ave) ([3]; T2 study): 100.0%
- Visual % injury (Ave) ([3]; T3 study): 100.0%
- glyphosate concentrations sufficient to inhibit cell growth [4]: ≥ 0.25 mM
- Visual % injury (Ave) ([5]; T2, 840 g ae/ha): 0.0%
- Visual % injury (Ave) ([5]; T3, 840 g ae/ha): 0.0%

— patent US9873883B2, “Glyphosate resistant plants and associated methods” (Dow AgroSciences LLC, priority 2012, dated 2018)
